In one test the target is TAK1-TAB1 (Homo sapiens, UniProt O43318). Kind of test: Kinase selectivity screen. Type of test: biochemical. To be noted: TAK1-TAB1, 10 μM. Put shortly:
(§1)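 ICL-CCIC-0019 was screened against a panel of 131 human kinases to assess kinase specificity. Activity was expressed as percent inhibition of each kinase.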

For another test, the target named is RSK2 (Homo sapiens, UniProt P51812). Kind of test: Kinase selectivity screen. Type of test: biochemical. To be noted: RSK2, 10 μM. Put shortly:
as §1

The target in the next test is MST2 (Homo sapiens, UniProt Q13188). The experiment in a line: Kinase selectivity screen. The test is classed as biochemical. To be noted: MST2, 10 μM. An outline of the steps: as §1
A further test deals with Src (Homo sapiens, UniProt P12931). Kind of test: Kinase selectivity screen. Type of test: biochemical. Put shortly: as §1
The target in the next test is CK2 (Homo sapiens, UniProt P68400). The experiment in a line: Kinase selectivity screen. Type of test: biochemical. Conditions: CK2, 10 μM.
Another test has as its target PIM1 (Homo sapiens, UniProt P11309). Kind of test: Kinase selectivity screen. Type of test: biochemical. To be noted: PIM1, 10 μM. Put shortly: as §1
The target in a further test is STK33 (Homo sapiens, UniProt Q9BYT3). The experiment in a line: Kinase selectivity screen. To be noted: STK33, 10 μM. Type of test: biochemical. Put shortly: as §1
The next test concerns the target RIPK2 (Homo sapiens, UniProt O43353). The experiment in a line: Kinase selectivity screen. The test is classed as biochemical. Conditions: RIPK2, 10 μM. An outline of the steps:
as §1

Another test concerns the target MKK2 (Homo sapiens, UniProt P36507). Kind of test: Kinase selectivity screen. The test is classed as biochemical. Conditions: MKK2, 10 μM.
Another test concerns the target TTBK1 (Homo sapiens, UniProt Q5TCY1). The experiment in a line: Kinase selectivity screen. Type of test: biochemical. To be noted: TTBK1, 10 μM. An outline of the steps:
as §1

In another test the target is PKD1 (Homo sapiens, UniProt Q15139). The experiment in a line: Kinase selectivity screen. Conditions: PKD1, 10 μM. The test is classed as biochemical. Put shortly:
as §1

The next test deals with TAO1 (Homo sapiens, UniProt Q7L7X3). The experiment in a line: Kinase selectivity screen. Type of test: biochemical. Conditions: TAO1, 10 μM. Put shortly:
as §1

The next test concerns the target TBK1 (Homo sapiens, UniProt Q9UHD2). Kind of test: Kinase selectivity screen. Type of test: biochemical. Conditions: TBK1, 10 μM. An outline of the steps:
as §1

For another test, the target named is GSK3b (Homo sapiens, UniProt P49841). Kind of test: Kinase selectivity screen. Type of test: biochemical. Put shortly: as §1
The target of the next test is PKCa (Homo sapiens, UniProt P17252). The experiment in a line: Kinase selectivity screen. The test is classed as biochemical. An outline of the steps:
as §1

For the next test, the target named is HIPK1 (Homo sapiens, UniProt Q86Z02). The experiment in a line: Kinase selectivity screen. Type of test: biochemical. Conditions: HIPK1, 10 μM. Put shortly: as §1
A further test has as its target PHK (Homo sapiens, UniProt Q16816). Kind of test: Kinase selectivity screen. Type of test: biochemical. Put shortly:
as §1

The test system of another test is HCT116 cells. The experiment in a line: DNA cell cycle analysis (flow cytometry, propidium iodide). The test is classed as cell-based, human. As for the experimental part: Supernatant and cells were harvested, washed and centrifuged. The cell pellet was resuspended it 1 mL ice-cold PBS and the suspension added to 9 mL 70% ethanol, while mixing gently. Cells were fixed for at least 2 hours at −20°C. Cells were centrifuged and rehydrated in 3 mL cold PBS for 15 minutes. Samples were stained in 500 μL buffer containing 100 mM Tris pH 7.4, 150 mM NaCl, 1 mM CaCl2, 0.5 mM MgCl2, 0.1% Triton X-100, 0.1 mg/ml RNase A, 50 μg/ml propidium iodide (all items from Sigma-Aldrich) at 37°C for 3 h protected from light. Data were acquired on a BD FACS Canto flow cytometer (BD Bioscience) and analyzed using FlowJo 7.6.4 software (Tree Star).

In test [1] the target is recombinant human Δ49N CHKA2 (Homo sapiens, UniProt P35790). Kind of test: Enzymatic inhibition of choline kinase activity. The test is classed as biochemical. As for the experimental part: Enzymatic kinase activity, [^3H]choline to [^3H]PCho conversion and growth inhibition assays was conducted as previously described. [^3H]choline incorporation into soluble and lipid fractions was determined by a pulse-chase experiment. HCT116 cells were seeded at a density of 3 × 10^5 cell per well into 12-well plates and incubated overnight. Cells were treated with 1 or 10 μM ICL-CCIC-0019 for 1 h and pulsed in presence of inhibitor with 18.5 kBq/mL [^3H]choline chloride in 500 μL for 1 additional h. Cells were briefly rinsed with RPMI and incubated with fresh, non-radioactive medium for 6 h. Metabolites were extracted as described elsewhere, but additionally the radioactivity of the choline-containing and chloroform (lipid-containing) fractions was measured. Uptake of radiolabeled metabolite-tracers was measured as described elsewhere. Antiproliferative activity was measured after 72 h continuous exposure to inhibitors by sulforhodamine B (SRB) assay as described elsewhere. Apoptosis was determined using Caspase 3/7 Glo assay (Promega) according to the manufacturer's instructions.

Test [2] deals with panel of 131 human kinases. Kind of test: Kinase selectivity screen (whole panel). Type of test: biochemical. Conditions: 10 μM. How it is done: The substantially less demanding synthesis of ICL-CCIC-0019 compared with MN58B bears additional advantages. […] This consequently diminished intracellular PCho concentration, and importantly, the incorporation of [^3H]-choline into lipids (Figure 1D). […] To assess kinase specificity, ICL-CCIC-0019 was tested against a panel of 131 human kinases (Figure 1E and Supplementary Table S1). […] Inhibition greater than 20% was attained for insulin-like growth factor 1 (IGF-1R, 35 ± 7% inhibition), mitogen-activated protein kinase-activated protein kinase 3 (MAPKAP-K3, 33 ± 6%), extracellular signal regulated kinase 8 (ERK8, 31 ± 4%), ribosomal S6 kinase 1 (RSK1, 22 ± 6%), and v-erb-a erythroblastic leukemia viral oncogene homolog 4 (HER4, 21 ± 7%).

The values that follow come from publication PMC5095062, “The novel choline kinase inhibitor ICL-CCIC-0019 reprograms cellular metabolism and inhibits cancer cell growth” (Oncotarget, 2016).

Chain of recombinant human Δ49N CHKA2 (P35790 50-457 limits assumed, stated change not applied): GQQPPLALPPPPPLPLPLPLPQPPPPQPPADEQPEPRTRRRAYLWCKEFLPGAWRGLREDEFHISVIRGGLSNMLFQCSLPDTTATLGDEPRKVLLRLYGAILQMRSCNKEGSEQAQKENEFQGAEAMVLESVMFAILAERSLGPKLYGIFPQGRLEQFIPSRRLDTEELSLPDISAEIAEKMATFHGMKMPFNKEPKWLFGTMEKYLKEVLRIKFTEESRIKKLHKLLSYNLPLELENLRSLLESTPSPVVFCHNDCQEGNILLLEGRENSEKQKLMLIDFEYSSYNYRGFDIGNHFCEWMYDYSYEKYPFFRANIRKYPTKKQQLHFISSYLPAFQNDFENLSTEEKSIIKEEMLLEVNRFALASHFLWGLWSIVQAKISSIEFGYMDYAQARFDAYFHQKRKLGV
Chain of GSK3b (P49841 whole entry): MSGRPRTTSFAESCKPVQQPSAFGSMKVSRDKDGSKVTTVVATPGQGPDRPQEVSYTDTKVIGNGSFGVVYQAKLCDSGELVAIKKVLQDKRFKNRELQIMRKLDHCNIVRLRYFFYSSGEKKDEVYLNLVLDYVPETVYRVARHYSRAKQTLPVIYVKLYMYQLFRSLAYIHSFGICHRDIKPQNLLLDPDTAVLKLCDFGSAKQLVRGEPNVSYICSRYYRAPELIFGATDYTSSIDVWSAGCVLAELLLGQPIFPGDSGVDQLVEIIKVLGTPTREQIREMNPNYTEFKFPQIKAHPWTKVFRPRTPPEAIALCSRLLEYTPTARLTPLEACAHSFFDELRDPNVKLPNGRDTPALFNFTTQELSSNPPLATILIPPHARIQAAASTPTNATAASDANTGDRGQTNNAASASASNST
Chain of CK2 (P68400 whole entry): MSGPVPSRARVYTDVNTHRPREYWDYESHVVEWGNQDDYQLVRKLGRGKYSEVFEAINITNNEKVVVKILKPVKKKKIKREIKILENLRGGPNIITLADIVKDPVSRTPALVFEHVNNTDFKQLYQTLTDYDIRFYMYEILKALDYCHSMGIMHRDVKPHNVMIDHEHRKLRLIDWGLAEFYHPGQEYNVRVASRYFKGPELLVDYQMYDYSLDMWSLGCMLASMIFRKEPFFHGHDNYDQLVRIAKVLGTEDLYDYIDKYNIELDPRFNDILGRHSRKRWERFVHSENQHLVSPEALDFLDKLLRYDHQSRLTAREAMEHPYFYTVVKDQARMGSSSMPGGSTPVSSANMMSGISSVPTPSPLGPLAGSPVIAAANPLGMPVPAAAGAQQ
Chain of PKD1 (Q15139 whole entry): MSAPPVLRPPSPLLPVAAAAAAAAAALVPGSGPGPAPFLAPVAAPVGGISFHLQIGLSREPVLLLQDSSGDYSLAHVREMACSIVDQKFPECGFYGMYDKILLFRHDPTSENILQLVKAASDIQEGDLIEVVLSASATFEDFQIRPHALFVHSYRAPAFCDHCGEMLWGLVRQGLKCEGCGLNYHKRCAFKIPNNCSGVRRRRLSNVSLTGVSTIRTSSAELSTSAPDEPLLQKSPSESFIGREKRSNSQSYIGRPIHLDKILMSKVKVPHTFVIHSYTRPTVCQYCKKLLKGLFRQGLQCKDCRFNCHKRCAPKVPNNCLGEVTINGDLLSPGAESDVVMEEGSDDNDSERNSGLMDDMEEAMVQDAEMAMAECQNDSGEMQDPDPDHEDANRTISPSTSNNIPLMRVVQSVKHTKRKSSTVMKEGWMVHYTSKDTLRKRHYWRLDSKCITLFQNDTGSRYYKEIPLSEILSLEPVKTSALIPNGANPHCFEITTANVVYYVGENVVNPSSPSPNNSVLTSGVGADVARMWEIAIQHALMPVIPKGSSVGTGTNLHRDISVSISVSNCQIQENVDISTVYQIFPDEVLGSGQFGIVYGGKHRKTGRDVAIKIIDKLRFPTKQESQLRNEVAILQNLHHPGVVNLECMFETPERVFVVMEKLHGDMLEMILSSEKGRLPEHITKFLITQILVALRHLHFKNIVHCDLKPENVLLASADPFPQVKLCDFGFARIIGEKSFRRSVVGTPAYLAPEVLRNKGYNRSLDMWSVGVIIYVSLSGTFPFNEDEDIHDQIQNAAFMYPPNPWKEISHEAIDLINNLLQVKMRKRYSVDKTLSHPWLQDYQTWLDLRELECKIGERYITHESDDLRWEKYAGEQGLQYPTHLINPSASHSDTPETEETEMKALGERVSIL
Chain of Src (P12931 whole entry): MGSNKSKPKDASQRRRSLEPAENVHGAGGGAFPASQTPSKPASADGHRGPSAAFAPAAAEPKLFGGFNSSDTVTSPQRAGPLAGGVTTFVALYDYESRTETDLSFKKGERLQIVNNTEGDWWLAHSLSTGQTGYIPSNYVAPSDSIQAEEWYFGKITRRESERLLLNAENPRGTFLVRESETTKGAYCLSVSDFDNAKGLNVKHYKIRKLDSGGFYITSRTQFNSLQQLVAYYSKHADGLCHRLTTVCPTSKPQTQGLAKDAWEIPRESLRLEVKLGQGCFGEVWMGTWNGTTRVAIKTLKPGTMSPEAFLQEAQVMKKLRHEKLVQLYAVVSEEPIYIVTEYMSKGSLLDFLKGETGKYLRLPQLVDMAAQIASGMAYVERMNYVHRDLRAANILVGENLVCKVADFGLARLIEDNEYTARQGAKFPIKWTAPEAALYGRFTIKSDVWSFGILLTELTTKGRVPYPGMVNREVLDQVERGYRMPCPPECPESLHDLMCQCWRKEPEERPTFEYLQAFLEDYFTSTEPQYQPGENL
Chain of HIPK1 (Q86Z02 whole entry): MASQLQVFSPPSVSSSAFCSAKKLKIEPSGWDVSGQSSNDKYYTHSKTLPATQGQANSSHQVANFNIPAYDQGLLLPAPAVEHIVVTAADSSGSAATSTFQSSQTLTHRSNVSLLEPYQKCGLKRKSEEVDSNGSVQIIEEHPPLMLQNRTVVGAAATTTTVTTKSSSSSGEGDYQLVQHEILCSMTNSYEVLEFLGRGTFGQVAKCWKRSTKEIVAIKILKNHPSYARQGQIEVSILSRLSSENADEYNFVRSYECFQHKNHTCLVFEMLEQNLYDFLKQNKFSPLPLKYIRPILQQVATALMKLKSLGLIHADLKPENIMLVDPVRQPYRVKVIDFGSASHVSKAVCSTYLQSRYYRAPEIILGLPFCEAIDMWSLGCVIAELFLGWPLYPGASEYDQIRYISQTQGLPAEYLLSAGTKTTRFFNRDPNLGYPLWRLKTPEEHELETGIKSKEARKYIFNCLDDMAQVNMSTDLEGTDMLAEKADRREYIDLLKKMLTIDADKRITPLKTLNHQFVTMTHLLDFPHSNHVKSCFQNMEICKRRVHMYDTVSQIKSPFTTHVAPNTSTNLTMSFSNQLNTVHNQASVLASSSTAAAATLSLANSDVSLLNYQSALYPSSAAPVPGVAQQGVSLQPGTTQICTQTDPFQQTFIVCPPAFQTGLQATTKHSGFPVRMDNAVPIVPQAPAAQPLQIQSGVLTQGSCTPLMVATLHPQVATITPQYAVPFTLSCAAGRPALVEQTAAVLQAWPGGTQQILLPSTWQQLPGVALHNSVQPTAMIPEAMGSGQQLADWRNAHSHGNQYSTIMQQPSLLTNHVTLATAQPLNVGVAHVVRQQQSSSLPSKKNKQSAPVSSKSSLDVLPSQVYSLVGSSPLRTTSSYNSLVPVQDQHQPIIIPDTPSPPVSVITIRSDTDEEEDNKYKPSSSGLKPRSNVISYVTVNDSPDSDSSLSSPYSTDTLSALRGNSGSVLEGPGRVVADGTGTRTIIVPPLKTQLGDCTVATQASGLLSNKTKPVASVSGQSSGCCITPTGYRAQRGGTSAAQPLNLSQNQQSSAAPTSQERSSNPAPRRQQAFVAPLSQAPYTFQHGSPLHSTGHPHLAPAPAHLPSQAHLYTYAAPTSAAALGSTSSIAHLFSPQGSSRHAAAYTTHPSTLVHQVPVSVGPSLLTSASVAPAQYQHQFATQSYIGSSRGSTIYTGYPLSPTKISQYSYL
Chain of PHK (Q16816 whole entry): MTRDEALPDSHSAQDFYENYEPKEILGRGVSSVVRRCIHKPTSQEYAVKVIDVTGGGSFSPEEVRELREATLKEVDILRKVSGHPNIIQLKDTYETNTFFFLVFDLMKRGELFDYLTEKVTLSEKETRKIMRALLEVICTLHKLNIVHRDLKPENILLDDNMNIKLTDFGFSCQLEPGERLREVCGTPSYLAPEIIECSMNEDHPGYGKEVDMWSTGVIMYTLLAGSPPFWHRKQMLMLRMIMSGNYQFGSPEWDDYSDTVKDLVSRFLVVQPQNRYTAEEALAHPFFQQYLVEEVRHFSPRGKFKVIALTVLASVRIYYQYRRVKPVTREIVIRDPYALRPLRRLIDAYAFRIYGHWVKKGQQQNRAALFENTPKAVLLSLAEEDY
Chain of TAK1-TAB1 (O43318 with tags, fused parts or gaps limits assumed): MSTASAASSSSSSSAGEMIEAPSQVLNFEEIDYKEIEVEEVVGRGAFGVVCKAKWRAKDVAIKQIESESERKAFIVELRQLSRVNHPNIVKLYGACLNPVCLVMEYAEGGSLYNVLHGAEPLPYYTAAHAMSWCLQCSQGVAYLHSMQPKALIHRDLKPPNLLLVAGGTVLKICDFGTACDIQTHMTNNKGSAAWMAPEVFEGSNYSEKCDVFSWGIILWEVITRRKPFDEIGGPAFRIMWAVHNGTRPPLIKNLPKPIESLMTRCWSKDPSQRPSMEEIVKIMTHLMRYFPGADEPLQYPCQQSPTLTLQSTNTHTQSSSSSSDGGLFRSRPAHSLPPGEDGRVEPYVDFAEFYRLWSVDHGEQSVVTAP
Chain of PIM1 (P11309 whole entry): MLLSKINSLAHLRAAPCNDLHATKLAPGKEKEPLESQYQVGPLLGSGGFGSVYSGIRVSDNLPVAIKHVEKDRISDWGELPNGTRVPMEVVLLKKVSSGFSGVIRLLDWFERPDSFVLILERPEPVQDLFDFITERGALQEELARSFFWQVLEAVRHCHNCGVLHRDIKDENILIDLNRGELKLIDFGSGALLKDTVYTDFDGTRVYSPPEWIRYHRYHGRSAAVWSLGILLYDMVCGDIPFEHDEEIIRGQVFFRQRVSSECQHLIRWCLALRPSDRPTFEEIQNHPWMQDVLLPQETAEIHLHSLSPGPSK

For `CN(C)c1cc[n+](CCCCCCCCCCCC[n+]2ccc(N(C)C)cc2)cc1` [ICL-CCIC-0019], the remaining activity at 10 µM was 97% on TAK1-TAB1; 105% on RSK2; 89% on MST2; 105% at Src; 86% on CK2; 102% on PIM1. The remaining activity at 10 µM at STK33 came to 99%; on RIPK2, 102%; on MKK2 it was 95%; on TTBK1 it was 97%; at PKD1, 105%; on TAO1, 100%. The remaining activity at 10 µM came out at 108% at TBK1; 94% at GSK3b; 98% on PKCa; 106% at HIPK1; 94% on PHK. Further, in the test on HCT116 cells (10 μM, 24 h), the “increase of cells in G1 phase” value is 2 fold. In the test with HCT116 cells (48 h), the “increase of sub-G1 population” value is 3.7 fold. Moreover, in [1] (CHKA inhibition), the “potency compared with MN58B” value is “equipotent to MN58B”. For the same molecule, the “potency relative to CK37 (times more potent)” value in [1] (CHKA inhibition) is reported as more than 500 times. Also, the IC50 in test [1] (read-out: IC50 of CHKA activity) is 270 ± 60 nM. Besides, the “inhibition in all 131 kinases” value in test [2] is listed as not above 35%. Also, in [2] (131 kinases), the “number of kinases inhibited more than 20%” value is 5.

By remaining activity is commonly meant the signal under treatment as a percentage of the control signal. The term IC50 denotes the concentration at which inhibition is half-maximal.
